Common to all, as to assay: relative viability (nuclei count vs DMSO), 5 days (fraction); higher = more cells survive
Compound in assay [1]: COC1=C(C=C(C=C1)C2=CC3=NC=CN3C(=N2)NC4=C(C=CC=N4)C(=O)N)OC [BAY61-3606] + Cc1nc(Nc2ncc(C(=O)Nc3c(C)cccc3Cl)s2)cc(N2CCN(CCO)CC2)n1 [Dasatinib] (partner 0.075 µM)
The essentials: (§1)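 Lung cancer cell lines were pin-tool dosed in 1536-well plates on the day after seeding, with either a lone drug or a fixed anchor-drug dose plus five library-drug doses (not always all listed) in √10 steps. Nuclei were counted on 4× images after 5 days. Relative viability is the ratio of treated-well to vehicle-well nuclei counts, with each value a median of duplicate plates.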

Compound in assay [2]: COc1cccc2c1C(=O)c1c(O)c3c(c(O)c1C2=O)C[C@@](O)(C(=O)CO)C[C@@H]3O[C@H]1C[C@H](N)[C@H](O)[C@H](C)O1 [Doxorubicin] + CC(=O)Nc1cccc(-n2c(=O)n(C3CC3)c(=O)c3c(Nc4ccc(I)cc4F)n(C)c(=O)c(C)c32)c1 [Trametinib] (partner 0.02 µM)
The essentials:
as §1

Compound in assay [3]: COc1cccc2c1C(=O)c1c(O)c3c(c(O)c1C2=O)C[C@@](O)(C(=O)CO)C[C@@H]3O[C@H]1C[C@H](N)[C@H](O)[C@H](C)O1 [Doxorubicin] + CC1(C)CCC(c2ccc(Cl)cc2)=C(CN2CCN(c3ccc(C(=O)NS(=O)(=O)c4ccc(N[C@H](CCN5CCOCC5)CSc5ccccc5)c(S(=O)(=O)C(F)(F)F)c4)cc3)CC2)C1 [Navitoclax] (partner 0.5 µM)
In outline:
as §1

Compound in assay [4]: COc1cccc2c1C(=O)c1c(O)c3c(c(O)c1C2=O)C[C@@](O)(C(=O)CO)C[C@@H]3O[C@H]1C[C@H](N)[C@H](O)[C@H](C)O1 [Doxorubicin] + COc1cccc2cc(-c3nc([C@H]4CC[C@H](C(=O)O)CC4)n4ncnc(N)c34)[nH]c12 [OSI-027] (partner 0.5 µM)
The essentials: as §1

For the cell line UMC-11, the relative viability in assay [1] (first compound 0.02 µM) came out at 0.464; in assay [1] (first compound 0.06325 µM), 0.587; in assay [1] (first compound 0.2 µM), 0.568; in assay [1] (first compound 0.6325 µM), 0.606; in assay [1] (first compound 2 µM), 0.524; in assay [2] (first compound 0.001 µM) it was 0.948. In addition, the relative viability in assay [2] (first compound 0.003162 µM) turned out to be 0.761; in assay [2] (first compound 0.01 µM), 0.768; in assay [2] (first compound 0.03162 µM), 0.366; in assay [2] (first compound 0.1 µM) it was 0.442; in assay [3] (first compound 0.001 µM), 0.414; in assay [3] (first compound 0.003162 µM) it was 0.306. Also, the relative viability is 0.323 in assay [3] (first compound 0.01 µM); 0.229 in assay [3] (first compound 0.03162 µM); 0.366 in assay [3] (first compound 0.1 µM); 0.514 in assay [4] (first compound 0.001 µM); 0.425 in assay [4] (first compound 0.003162 µM); 0.482 in assay [4] (first compound 0.01 µM). Besides, the relative viability in assay [4] (first compound 0.03162 µM) was 0.436; in assay [4] (first compound 0.1 µM), 0.368.

The record behind these values is the supplement of paper PMC10307832.
